Test results from ChEMBL document CHEMBL4507311, “Data for DCP probe A-1155463” (2021).

Tests used:
[1] = target: 5-hydroxytryptamine receptor 3A (Homo sapiens, UniProt P46098); test: GPCRScan assay: inhibition of 5-HT3; parameters: radioligand conc. used [nm] 1.0 – 2.0, parental cells HEKT
Histamine H3 receptor = Histamine H3 receptor (Homo sapiens, UniProt Q9Y5N1); test: GPCRScan assay: inhibition of H3; parameters: radioligand conc. used [nm] 0.5 – 1.0, parental cells HEK Flp-In
[2] = target: Sigma non-opioid intracellular receptor 1 (Homo sapiens, UniProt Q99720); test: GPCRScan assay: inhibition of Sigma 1; parameters: radioligand conc. used [nm] 4.0 – 5.0, parental cells HEKT
[3] = test system: Tyrosine-protein kinase ABL1 (Homo sapiens), P00519 [H396P]; settings: Compound concentration 1000.0 nM
[4] = target: RAC-beta serine/threonine-protein kinase (Homo sapiens) (UniProt P31751); settings: Compound concentration 1000.0 nM
[5] = target: NUAK family SNF1-like kinase 1 (Homo sapiens) (UniProt O60285); settings: Compound concentration 1000.0 nM
[6] = target: Tyrosine-protein kinase receptor UFO (Homo sapiens) (UniProt P30530); settings: Compound concentration 1000.0 nM
[7] = target: Cytoplasmic tyrosine-protein kinase BMX (Homo sapiens) (UniProt P51813); settings: Compound concentration 1000.0 nM
[8] = target: Calcium/calmodulin-dependent protein kinase type 1 (Homo sapiens) (UniProt Q14012); settings: Compound concentration 1000.0 nM
[9] = target: Calcium/calmodulin-dependent protein kinase kinase 1 (Homo sapiens) (UniProt Q8N5S9); settings: Compound concentration 1000.0 nM
Chain of Calcium/calmodulin-dependent protein kinase kinase 1 (Homo sapiens) (Q8N5S9 whole entry, looked up): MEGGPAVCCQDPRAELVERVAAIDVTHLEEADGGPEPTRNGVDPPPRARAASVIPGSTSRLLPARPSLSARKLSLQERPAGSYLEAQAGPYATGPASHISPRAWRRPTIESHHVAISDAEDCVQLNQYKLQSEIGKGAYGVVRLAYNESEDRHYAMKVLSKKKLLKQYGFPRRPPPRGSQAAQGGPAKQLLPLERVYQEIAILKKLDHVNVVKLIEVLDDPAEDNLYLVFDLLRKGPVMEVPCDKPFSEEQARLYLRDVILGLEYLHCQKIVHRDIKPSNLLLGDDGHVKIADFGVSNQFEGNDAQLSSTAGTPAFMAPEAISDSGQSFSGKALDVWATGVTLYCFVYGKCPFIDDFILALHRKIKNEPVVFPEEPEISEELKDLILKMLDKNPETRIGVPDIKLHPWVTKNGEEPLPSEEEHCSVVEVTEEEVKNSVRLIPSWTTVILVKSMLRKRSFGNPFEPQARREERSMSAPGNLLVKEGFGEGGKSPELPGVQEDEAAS

[10] = target: Dual specificity protein kinase CLK2 (Homo sapiens) (UniProt P49760); settings: Compound concentration 1000.0 nM
[11] = target: Tyrosine-protein kinase CSK (Homo sapiens) (UniProt P41240); settings: Compound concentration 1000.0 nM
[12] = target: Serine/threonine-protein kinase 17B (Homo sapiens) (UniProt O94768); settings: Compound concentration 1000.0 nM
[13] = target: Epidermal growth factor receptor (Homo sapiens) (UniProt P00533); settings: Compound concentration 1000.0 nM
[14] = test system: Epidermal growth factor receptor (Homo sapiens), P00533 [G719C]; settings: Compound concentration 1000.0 nM
[15] = test system: Epidermal growth factor receptor (Homo sapiens), P00533 [L861Q]; settings: Compound concentration 1000.0 nM
[16] = target: Ephrin type-A receptor 2 (Homo sapiens) (UniProt P29317); settings: Compound concentration 1000.0 nM
[17] = target: Mitogen-activated protein kinase 7 (Homo sapiens) (UniProt Q13164); settings: Compound concentration 1000.0 nM
[18] = target: Vascular endothelial growth factor receptor 3 (Homo sapiens) (UniProt P35916); settings: Compound concentration 1000.0 nM
[19] = target: Tyrosine-protein kinase HCK (Homo sapiens) (UniProt P08631); settings: Compound concentration 1000.0 nM
[20] = target: Mitogen-activated protein kinase kinase kinase kinase 1 (Homo sapiens) (UniProt Q92918); settings: Compound concentration 1000.0 nM
[21] = target: Inhibitor of nuclear factor kappa-B kinase subunit alpha (Homo sapiens) (UniProt O15111); settings: Compound concentration 1000.0 nM
[22] = target: Interleukin-1 receptor-associated kinase 3 (Homo sapiens) (UniProt Q9Y616); settings: Compound concentration 1000.0 nM
[23] = target: Tyrosine-protein kinase JAK3 (Homo sapiens) (UniProt P52333); settings: Compound concentration 1000.0 nM
[24] = test system: Mast/stem cell growth factor receptor Kit (Homo sapiens), P10721 [L576P]; settings: Compound concentration 1000.0 nM
Chain of Mast/stem cell growth factor receptor Kit (Homo sapiens), P10721 [L576P] (P10721 whole entry L576P): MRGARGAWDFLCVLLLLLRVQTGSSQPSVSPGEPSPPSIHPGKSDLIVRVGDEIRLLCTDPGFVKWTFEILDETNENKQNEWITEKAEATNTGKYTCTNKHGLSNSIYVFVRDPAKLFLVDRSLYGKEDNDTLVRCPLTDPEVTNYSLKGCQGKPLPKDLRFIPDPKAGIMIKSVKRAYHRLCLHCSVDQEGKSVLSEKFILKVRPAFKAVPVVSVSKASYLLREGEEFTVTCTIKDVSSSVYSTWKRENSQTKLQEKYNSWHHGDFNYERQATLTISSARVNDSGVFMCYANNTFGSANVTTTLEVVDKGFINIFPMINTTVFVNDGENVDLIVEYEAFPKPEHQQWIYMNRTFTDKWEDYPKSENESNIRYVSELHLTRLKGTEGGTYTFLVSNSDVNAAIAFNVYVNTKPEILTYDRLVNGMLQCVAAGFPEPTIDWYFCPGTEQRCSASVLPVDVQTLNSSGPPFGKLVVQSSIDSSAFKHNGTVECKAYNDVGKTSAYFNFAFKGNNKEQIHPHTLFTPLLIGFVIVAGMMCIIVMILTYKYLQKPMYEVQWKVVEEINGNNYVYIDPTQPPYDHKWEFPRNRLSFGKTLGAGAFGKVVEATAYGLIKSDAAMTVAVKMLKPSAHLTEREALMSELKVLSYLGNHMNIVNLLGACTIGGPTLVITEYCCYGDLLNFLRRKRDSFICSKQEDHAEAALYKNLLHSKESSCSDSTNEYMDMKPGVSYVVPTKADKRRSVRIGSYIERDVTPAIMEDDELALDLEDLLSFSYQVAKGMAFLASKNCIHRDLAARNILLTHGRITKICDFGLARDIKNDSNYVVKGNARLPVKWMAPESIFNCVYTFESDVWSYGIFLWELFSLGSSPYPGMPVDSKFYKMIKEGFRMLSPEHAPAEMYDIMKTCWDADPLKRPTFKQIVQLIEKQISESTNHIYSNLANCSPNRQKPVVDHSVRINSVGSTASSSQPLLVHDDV

[25] = test system: Mast/stem cell growth factor receptor Kit (Homo sapiens), P10721 [V559D,T670I]; settings: Compound concentration 1000.0 nM
Chain of Mast/stem cell growth factor receptor Kit (Homo sapiens), P10721 [V559D,T670I] (P10721 whole entry V559D/T670I): as the sequence (P10721 whole entry L576P) above, with V559D, P576L, T670I counted along it

[26] = target: Tyrosine-protein kinase Lck (Homo sapiens) (UniProt P06239); settings: Compound concentration 1000.0 nM
[27] = target: Hepatocyte growth factor receptor (Homo sapiens) (UniProt P08581); settings: Compound concentration 1000.0 nM
[28] = test system: Hepatocyte growth factor receptor (Homo sapiens), P08581 [M1250T]; settings: Compound concentration 1000.0 nM
[29] = target: Misshapen-like kinase 1 (Homo sapiens) (UniProt Q8N4C8); settings: Compound concentration 1000.0 nM
[30] = target: Dual specificity mitogen-activated protein kinase kinase 7 (Homo sapiens) (UniProt O14733); settings: Compound concentration 1000.0 nM
[31] = target: MAP kinase-interacting serine/threonine-protein kinase 1 (Homo sapiens) (UniProt Q9BUB5); settings: Compound concentration 1000.0 nM
[32] = target: Serine/threonine-protein kinase 38-like (Homo sapiens) (UniProt Q9Y2H1); settings: Compound concentration 1000.0 nM
Chain of Serine/threonine-protein kinase 38-like (Homo sapiens) (Q9Y2H1 2-464 limits assumed): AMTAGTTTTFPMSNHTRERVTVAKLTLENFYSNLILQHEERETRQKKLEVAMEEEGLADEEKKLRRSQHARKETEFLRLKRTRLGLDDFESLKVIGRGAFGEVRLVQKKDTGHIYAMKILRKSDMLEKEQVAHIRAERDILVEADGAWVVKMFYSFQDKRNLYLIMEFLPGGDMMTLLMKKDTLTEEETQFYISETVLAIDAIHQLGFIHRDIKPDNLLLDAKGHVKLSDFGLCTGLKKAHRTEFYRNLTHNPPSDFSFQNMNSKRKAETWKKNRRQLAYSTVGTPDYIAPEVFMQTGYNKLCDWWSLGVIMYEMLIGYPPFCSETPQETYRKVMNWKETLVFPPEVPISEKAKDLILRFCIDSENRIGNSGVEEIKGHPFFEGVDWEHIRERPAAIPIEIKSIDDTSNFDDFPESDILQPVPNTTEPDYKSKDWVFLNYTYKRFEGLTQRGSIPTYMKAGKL

[33] = target: Serine/threonine-protein kinase Nek2 (Homo sapiens) (UniProt P51955); settings: Compound concentration 1000.0 nM
[34] = target: Serine/threonine-protein kinase Nek6 (Homo sapiens) (UniProt Q9HC98); settings: Compound concentration 1000.0 nM
Chain of Serine/threonine-protein kinase Nek6 (Homo sapiens) (Q9HC98 whole entry): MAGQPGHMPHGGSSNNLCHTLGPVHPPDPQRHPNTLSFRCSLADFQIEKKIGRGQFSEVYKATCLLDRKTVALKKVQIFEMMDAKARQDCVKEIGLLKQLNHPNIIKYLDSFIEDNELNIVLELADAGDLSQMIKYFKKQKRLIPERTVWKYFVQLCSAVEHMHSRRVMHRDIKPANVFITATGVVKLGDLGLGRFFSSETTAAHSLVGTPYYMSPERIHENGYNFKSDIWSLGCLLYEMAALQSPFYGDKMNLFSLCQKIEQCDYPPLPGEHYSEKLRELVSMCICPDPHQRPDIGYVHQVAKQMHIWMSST

[35] = target: Serine/threonine-protein kinase PAK 6 (Homo sapiens) (UniProt Q9NQU5); settings: Compound concentration 1000.0 nM
Chain of Serine/threonine-protein kinase PAK 6 (Homo sapiens) (Q9NQU5 whole entry, looked up): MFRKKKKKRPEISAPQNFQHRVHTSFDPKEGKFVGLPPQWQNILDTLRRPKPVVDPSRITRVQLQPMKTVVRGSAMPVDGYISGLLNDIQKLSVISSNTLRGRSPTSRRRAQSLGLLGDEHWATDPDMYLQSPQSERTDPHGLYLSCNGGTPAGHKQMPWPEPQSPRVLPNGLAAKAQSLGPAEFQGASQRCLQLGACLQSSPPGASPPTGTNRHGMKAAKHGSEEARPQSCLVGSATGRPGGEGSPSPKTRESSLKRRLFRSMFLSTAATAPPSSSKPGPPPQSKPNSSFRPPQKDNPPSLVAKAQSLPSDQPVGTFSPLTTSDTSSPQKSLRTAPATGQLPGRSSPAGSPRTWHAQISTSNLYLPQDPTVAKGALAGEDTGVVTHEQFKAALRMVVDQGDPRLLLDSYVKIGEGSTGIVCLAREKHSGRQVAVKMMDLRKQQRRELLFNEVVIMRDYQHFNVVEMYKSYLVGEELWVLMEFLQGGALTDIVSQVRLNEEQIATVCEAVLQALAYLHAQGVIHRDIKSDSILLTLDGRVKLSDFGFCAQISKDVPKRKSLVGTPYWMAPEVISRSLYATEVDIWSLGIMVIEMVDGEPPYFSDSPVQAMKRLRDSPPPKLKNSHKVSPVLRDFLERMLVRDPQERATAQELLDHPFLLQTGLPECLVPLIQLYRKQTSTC

[36] = target: cAMP-dependent protein kinase catalytic subunit beta (Homo sapiens) (UniProt P22694); settings: Compound concentration 1000.0 nM
[37] = test system: Proto-oncogene tyrosine-protein kinase receptor Ret (Homo sapiens), P07949 [M918T]; settings: Compound concentration 1000.0 nM
[38] = target: Serine/threonine-protein kinase RIO2 (Homo sapiens) (UniProt Q9BVS4); settings: Compound concentration 1000.0 nM
Chain of Serine/threonine-protein kinase RIO2 (Homo sapiens) (Q9BVS4 whole entry, looked up): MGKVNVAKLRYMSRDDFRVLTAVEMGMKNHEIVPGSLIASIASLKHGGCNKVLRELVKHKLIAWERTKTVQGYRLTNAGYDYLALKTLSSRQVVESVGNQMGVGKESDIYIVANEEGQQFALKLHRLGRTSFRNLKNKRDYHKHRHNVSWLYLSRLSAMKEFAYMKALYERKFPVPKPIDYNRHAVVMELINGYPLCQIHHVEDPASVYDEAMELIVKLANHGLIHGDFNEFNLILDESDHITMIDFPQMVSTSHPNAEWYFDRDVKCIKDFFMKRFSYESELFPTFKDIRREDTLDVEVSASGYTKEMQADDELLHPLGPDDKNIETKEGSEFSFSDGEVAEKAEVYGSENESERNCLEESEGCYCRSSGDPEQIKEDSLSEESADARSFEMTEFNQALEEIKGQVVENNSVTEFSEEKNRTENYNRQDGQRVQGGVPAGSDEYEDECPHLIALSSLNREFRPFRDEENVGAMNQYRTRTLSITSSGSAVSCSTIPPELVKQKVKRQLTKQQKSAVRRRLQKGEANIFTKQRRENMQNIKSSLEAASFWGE

[39] = target: Serine/threonine-protein kinase RIO3 (Homo sapiens) (UniProt O14730); settings: Compound concentration 1000.0 nM
[40] = target: Serine/threonine-protein kinase SBK1 (Homo sapiens) (UniProt Q52WX2); settings: Compound concentration 1000.0 nM
Chain of Serine/threonine-protein kinase SBK1 (Homo sapiens) (Q52WX2 whole entry): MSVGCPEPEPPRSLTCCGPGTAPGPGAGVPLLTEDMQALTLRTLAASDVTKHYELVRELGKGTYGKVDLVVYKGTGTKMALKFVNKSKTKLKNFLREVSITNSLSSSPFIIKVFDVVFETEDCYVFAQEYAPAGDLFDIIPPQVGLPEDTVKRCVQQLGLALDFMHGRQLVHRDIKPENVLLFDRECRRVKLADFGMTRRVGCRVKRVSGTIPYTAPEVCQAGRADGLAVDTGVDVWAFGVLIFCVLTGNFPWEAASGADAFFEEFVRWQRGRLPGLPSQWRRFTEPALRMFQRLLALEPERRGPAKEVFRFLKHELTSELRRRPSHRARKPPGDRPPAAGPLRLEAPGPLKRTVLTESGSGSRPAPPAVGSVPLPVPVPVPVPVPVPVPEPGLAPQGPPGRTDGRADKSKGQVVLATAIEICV

[41] = target: Non-receptor tyrosine-protein kinase TNK1 (Homo sapiens) (UniProt Q13470); settings: Compound concentration 1000.0 nM
[42] = target: Mitogen-activated protein kinase kinase kinase 19 (Homo sapiens) (UniProt Q56UN5); settings: Compound concentration 1000.0 nM
[43] = target: 5-hydroxytryptamine receptor 6 (Homo sapiens) (UniProt P50406); settings: Compound concentration 10.0 uM
Chain of 5-hydroxytryptamine receptor 6 (Homo sapiens) (P50406 whole entry): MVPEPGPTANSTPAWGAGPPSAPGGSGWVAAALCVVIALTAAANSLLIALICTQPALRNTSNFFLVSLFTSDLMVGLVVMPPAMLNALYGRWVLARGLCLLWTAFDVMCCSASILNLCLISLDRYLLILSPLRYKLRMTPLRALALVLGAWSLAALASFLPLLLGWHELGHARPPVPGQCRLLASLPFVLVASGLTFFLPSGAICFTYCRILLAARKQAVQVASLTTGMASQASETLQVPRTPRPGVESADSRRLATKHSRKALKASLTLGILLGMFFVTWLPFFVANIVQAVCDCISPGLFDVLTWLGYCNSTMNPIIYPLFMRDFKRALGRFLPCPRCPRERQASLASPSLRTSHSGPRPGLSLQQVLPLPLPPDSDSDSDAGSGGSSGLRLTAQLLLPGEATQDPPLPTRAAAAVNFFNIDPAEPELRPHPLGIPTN

[44] = target: Mu-type opioid receptor (Homo sapiens) (UniProt P35372); settings: Compound concentration 10.0 uM

Chain of 5-hydroxytryptamine receptor 3A (P46098 whole entry): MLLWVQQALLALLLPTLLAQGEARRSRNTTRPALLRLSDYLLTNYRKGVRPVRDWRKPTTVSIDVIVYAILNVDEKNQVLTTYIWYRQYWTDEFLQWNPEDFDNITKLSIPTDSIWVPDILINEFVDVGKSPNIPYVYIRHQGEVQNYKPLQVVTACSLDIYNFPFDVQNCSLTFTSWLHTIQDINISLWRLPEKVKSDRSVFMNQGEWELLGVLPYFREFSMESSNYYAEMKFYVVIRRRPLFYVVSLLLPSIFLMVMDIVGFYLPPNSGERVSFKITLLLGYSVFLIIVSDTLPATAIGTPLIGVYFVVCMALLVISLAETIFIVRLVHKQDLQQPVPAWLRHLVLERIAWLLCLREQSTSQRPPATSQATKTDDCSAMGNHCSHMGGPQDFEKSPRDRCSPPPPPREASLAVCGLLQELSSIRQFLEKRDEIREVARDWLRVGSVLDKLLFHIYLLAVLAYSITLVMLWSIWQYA

CN(C)CC#Cc1ccc(OCCCc2sc(N3CCc4cccc(C(=O)Nc5nc6ccccc6s5)c4C3)nc2C(=O)O)c(F)c1 [A-1155463]
Ki ([1]; read-out: Ki): 1.14 µM
Ki ([1]; read-out: pKi (converted)): 1.07 µM
Ki (Histamine H3 receptor): 1.81 µM
Ki [2]: 0.136 µM
residual activity [3]: 100%
residual activity [4]: 100%
residual activity [5]: 80%
residual activity [6]: 92%
residual activity [7]: 82%
residual activity [8]: 93%
residual activity [9]: 87%
residual activity [10]: 83%
residual activity [11]: 90%
residual activity [12]: 72%
residual activity [13]: 87%
residual activity [14]: 91%
residual activity [15]: 100%
residual activity [16]: 92%
residual activity [17]: 99%
residual activity [18]: 100%
residual activity [19]: 100%
residual activity [20]: 93%
residual activity [21]: 81%
residual activity [22]: 77%
residual activity [23]: 58%
residual activity [24]: 95%
residual activity [25]: 95%
residual activity [26]: 100%
residual activity [27]: 61%
residual activity [28]: 100%
residual activity [29]: 88%
residual activity [30]: 69%
residual activity [31]: 78%
residual activity [32]: 83%
residual activity [33]: 92%
residual activity [34]: 100%
residual activity [35]: 100%
residual activity [36]: 100%
residual activity [37]: 100%
residual activity [38]: 100%
residual activity [39]: 86%
residual activity [40]: 100%
residual activity [41]: 98%
residual activity [42]: 95%
inhibition [43]: -1.75%
inhibition [44]: 15.4%
